The text below walks through data of publication PMC9607427, “Novel 7-Chloro-(4-thioalkylquinoline) Derivatives: Synthesis and Antiproliferative Activity through Inducing Apoptosis and DNA/RNA Damage” (Pharmaceuticals, 2022).

Series [1] deals with K562 (chronic myeloid leukemia). Description: Cytotoxic MTS assay, K562. Format: cell-based, human. As to the method:
(§1) In vitro cytotoxic activity of final compounds 5–82 was evaluated after 3 days of incubation against eight cell lines derived from human solid tumors including lung (A549 cells) and colon (HCT116 and HCT116p53−/−) carcinomas, as well as leukemia cell lines (CCRF-CEM, CEM-DNR, K562, and K562-TAX) and osteosarcoma (U2OS cells). For comparison, non-malignant BJ and MRC-5 fibroblasts, and BJLD and MCR-5LD fibroblasts doxorubicin-resistant cell lines were used. Concentrations inhibiting the cell growth by 50% (IC50) were determined using a quantitative metabolic staining with 3-(4,5-dimethylthiazol-2yl)-5-(3-carboxymethoxyphenyl)-2-(4-sulfophenyl)-2H-tetrazolium (MTS) and are summarized in (Table 3).
(§2) Cytotoxic activity was determined by MTS assay following 72 h of incubation. IC50 is the lowest concentration that kills 50% of cells. The standard deviation in cytotoxicity assays is typically up to 20% of the average value. […] The tested cell lines: A549 (lung adenocarcinoma), BJ (noncancerous human fibroblasts from foreskin), BJLD (human lung fibroblast doxorubicin-resistant), CCRF-CEM (childhood T cell acute lymphoblastic leukemia), a daunorubicin-resistant subline of CCRF-CEM cells (CEM-DNR bulk), HCT116 (colorectal carcinoma), HCT116p53−/− (HCT116 with deleted p53 gene), K562 (chronic myeloid leukemia), K562-TAX (chronic myeloid leukemia paclitaxel-resistant subline), MRC-5 (noncancerous human lung fibroblasts), MRC-5LD (noncancerous human lung fibroblasts doxorubicin-resistant), and U2OS (osteosarcoma).
(§3) All cell lines were purchased from the American Tissue Culture Collection (ATCC). The A549 cell line is lung adenocarcinoma. MRC-5 and BJ cell lines were used as a non-tumor control and represent human fibroblasts. (MRC-5 LD and BJLD) are doxorubicin-resistant human lung fibroblast cell lines. The CCRF-CEM line is derived from T lymphoblastic leukemia, evincing high chemosensitivity, whereas K562 represent cells from an […] patient sample with bcr-abl translocation. The daunorubicin-resistant subline of CCRF-CEM cells (CEM-DNR bulk) and paclitaxel-resistant subline K562-TAX were selected in our laboratory by the cultivation of maternal cell lines in increasing concentrations of daunorubicin or paclitaxel, respectively. The CEM-DNR bulk cells overexpress MRP-1 and P-glycoprotein protein, whereas K562-TAX cells overexpress P-glycoprotein only. Both proteins belong to the family of ABC transporters and are involved in the primary and/or acquired multidrug-resistance phenomenon. The U2OS cell line is derived from osteosarcoma, HCT116 is a colorectal tumor cell line and its p53 gene knock-down counterpart (HCT116p53−/−, Horizon Discovery Ltd., Cambridge, UK) is a model of human cancers with p53 mutation frequently associated with poor prognosis. The cells were maintained in nunc/corning 80 cm^2 plastic tissue culture flasks and cultured in a cell culture medium according to ATCC or Horizon recommendations (DMEM/RPMI 1640 with 5 g/L glucose, 2 mM glutamine, 100 U/mL penicillin, […], 10% fetal calf serum, and NaHCO3).
(§4) The activity of compounds was determined using a standard 3-(4,5-dimethylthiazol-2-yl)-5-(3-carboxymethoxyphenyl)-2-(4-sulfophenyl)-2H-tetrazolium (MTS) and it was performed at the Institute of Molecular and Translational Medicine by a robotic platform (High-ResBiosolutions). Cell suspensions were prepared and diluted according to the particular cell type and the expected target cell density (25,000–35,000 cells/mL based on cell growth characteristics). Cells were added by automatic pipettor (30 µL) into 384-well microtiter plates. All tested compounds were dissolved in 100% DMSO and four-fold dilutions of the intended test concentration were added in 0.15 µL aliquots at time zero to the microtiter plate wells by the echo acoustic non-contact liquid handler Echo550 (Labcyte). […]

Series [2] has as its system HCT116 (colorectal carcinoma). Briefly: Cytotoxic MTS assay, HCT116. It is filed as cell-based, human. Here is the method: as §1, §2, §3, §4
In general terms: Tetrazolium dyes change colour on reduction, which living cells bring about.

Series [3] has as its system A549 (lung adenocarcinoma). Briefly: Cytotoxic MTS assay, A549. It is filed as cell-based, human. Here is the method:
as §1, §2, §3, §4

Series [4] deals with K562-TAX (chronic myeloid leukemia paclitaxel-resistant subline). Description: Cytotoxic MTS assay, K562-TAX. It is filed as cell-based, human. As to the method: as §1, §2, §3, §4
A short description of series [5]: Cytotoxic MTS assay, MRC-5LD. It is filed as cell-based, human. To be noted: human; MTS, 72 h of incubation; read-out: Cytotoxic activity IC50, MRC5-LD. Here is the method: as §1, §2, §3, §4
A short description of series [6]: Cytotoxic MTS assay, BJLD. Format: cell-based, human. To be noted: human, BJLD cells (fibroblasts, doxorubicin-resistant); MTS, 72 h of incubation. As to the method:
as §1, §2, §3, §4

Series [7] has as its system CEM-DNR bulk (daunorubicin-resistant subline of CCRF-CEM cells). Description: Cytotoxic MTS assay, CEM-DNR. Format: cell-based, human. As to the method:
as §1, §2, §3, §4

Series [8] relates to HCT116p53−/− (HCT116 with deleted p53 gene). Description: Cytotoxic MTS assay, HCT116p53−/−. It is filed as cell-based, human. Here is the method: as §1, §2, §3, §4
Another series has as its system U2OS (osteosarcoma). Briefly: Cytotoxic MTS assay, U2OS. It is filed as cell-based, human. Here is the method: as §1, §2, §3, §4
The next series is described as follows: Cytotoxic MTS assay, BJ. It is filed as cell-based, human. To be noted: human, BJ cells (noncancerous foreskin fibroblasts); MTS, 72 h of incubation. As to the method: as §1, §2, §3, §4
Series [9] can be described thus: Cytotoxic MTS assay, MRC-5. To be noted: human, MRC-5 cells (noncancerous lung fibroblasts); MTS, 72 h of incubation. It is filed as cell-based, human. As to the method:
as §1, §2, §3, §4

Series [10] relates to CCRF-CEM (childhood T cell acute lymphoblastic leukemia). Briefly: Cytotoxic MTS assay, CCRF-CEM. Format: cell-based, human. As to the method:
as §1, §2, §3, §4

Series [11] deals with MRC-5LD (noncancerous human lung fibroblasts doxorubicin-resistant). Briefly: Cytotoxic MTS assay, MRC-5LD. It is filed as cell-based. As to the method: as §1, §2, §3, §4
For series [12], the system named is BJLD (human lung fibroblast doxorubicin-resistant). Briefly: Cytotoxic MTS assay, BJLD. It is filed as cell-based. Here is the method: as §1, §2, §3, §4
Series [13] has as its system BJ (noncancerous human fibroblasts from foreskin). Description: Cytotoxic MTS assay, BJ. Format: cell-based. Here is the method: as §1, §2, §3, §4
For series [14], the system named is MRC-5 (noncancerous human lung fibroblasts). Description: Cytotoxic MTS assay, MRC-5. Format: cell-based. As to the method: as §1, §2, §3, §4
Setting [15] is: Homo sapiens, K562, MTS, 72 h of incubation, read-out: Cytotoxic activity IC50, K562.
The mark [16] stands for this setting: Homo sapiens, HCT-116, MTS, 72 h of incubation, read-out: Cytotoxic activity IC50, HCT116.
Where [17] appears, read: Homo sapiens, A549, MTS, 72 h of incubation, read-out: Cytotoxic activity IC50, A549.
Where [18] appears, read: Homo sapiens, K562-Tax, MTS, 72 h of incubation, read-out: Cytotoxic activity IC50, K562-TAX.
The mark [19] stands for this setting: Homo sapiens, CEM-DNR, MTS, 72 h of incubation, read-out: Cytotoxic activity IC50, CEM-DNR.
Where [20] appears, read: Homo sapiens, HCT-116, MTS, 72 h of incubation, read-out: Cytotoxic activity IC50, HCT116-p53.
Setting [21] is: Homo sapiens, U2OS, MTS, 72 h of incubation, read-out: Cytotoxic activity IC50, U2OS.
The mark [22] stands for this setting: Homo sapiens, CCRF-CEM, MTS, 72 h of incubation, read-out: Cytotoxic activity IC50, CCRF-CEM.

Structures are written as SMILES. Like-named read-outs stand apart in the source and are kept apart here.

By IC50 is commonly meant the concentration that inhibits the measured activity by half. In the case of `[O-][S+](CCO)c1ccnc2cc(Cl)ccc12` (stereo not drawn) [Compound 41, 2-[(7-Chloroquinolin-4-yl)sulfinyl]ethanol], the IC50 came out at 27.8 µM in series [1] (setting [15]); 23.5 µM in series [2] (setting [16]); 34.4 µM in [3] (setting [17]); 21.4 µM in series [4] (setting [18]); 35.1 µM in series [7] (setting [19]); 22.5 µM in series [8] (setting [20]). Further, the IC50 in the series on U2OS (osteosarcoma) (setting [21]) is 22.1 µM; in series [10] (setting [22]), 4.52 µM. Moreover, the IC50 at 72 h was found to be 24.5 µM in series [5]; 28.5 µM in [6]; 33.3 µM in the series “Cytotoxic MTS assay, BJ”; 26.5 µM in series [9].
With `COc1ccccc1C(=O)OCC[S+]([O-])c1ccnc2cc(Cl)ccc12` (stereo not drawn) [Compound 47, 2-[(7-Chloroquinolin-4-yl)sulfinyl]ethyl-2-methoxybenzoate], the IC50 in series [1] (setting [15]) is 16.9 µM; in series [2] (setting [16]), 15.9 µM; in [3] (setting [17]), 32.2 µM; in [4] (setting [18]) it was 11.3 µM; in [7] (setting [19]) it was 26.8 µM; in series [8] (setting [20]), 11.3 µM. Also, the figures for the IC50 (in the series with U2OS (osteosarcoma) (setting [21]); in series [10] (setting [22])) were 19.1 µM and 2.74 µM, respectively. Besides, the IC50 at 72 h was 26.1 µM in series [5]; 30.7 µM in series [6]; 31.2 µM in “Cytotoxic MTS assay, BJ”; 28.2 µM in series [9].
Take `COc1ccc(C(=O)OCC[S+]([O-])c2ccnc3cc(Cl)ccc23)cc1[N+](=O)[O-]` (stereo not drawn) [Compound 48, 2-[(7-Chloroquinolin-4-yl)sulfinyl]ethyl-4-methoxy-3-nitrobenzoate]: the IC50 in series [1] (setting [15]) was 16.9 µM; in [2] (setting [16]), 17 µM; in [3] (setting [17]), 25 µM; in series [4] (setting [18]), 9.03 µM; in [7] (setting [19]), 12.9 µM; in [8] (setting [20]) it was 10 µM. Further, the IC50 in the series on U2OS (osteosarcoma) (setting [21]) amounted to 18.6 µM; in series [10] (setting [22]), 1.42 µM. In addition, the IC50 at 72 h worked out at 24 µM in [5]; 27.5 µM in [6]; 29.2 µM in the series “Cytotoxic MTS assay, BJ”; 27.8 µM in [9].
With `Cc1ccc([N+](=O)[O-])c(C(=O)OCC[S+]([O-])c2ccnc3cc(Cl)ccc23)c1` (stereo not drawn) [Compound 49, 2-[(7-Chloroquinolin-4-yl)sulfinyl]ethyl-5-methyl-2-nitrobenzoate], the IC50 was found to be 12.3 µM in series [1] (setting [15]); 7 µM in series [2] (setting [16]); 15.7 µM in series [3] (setting [17]); 6.4 µM in series [4] (setting [18]); 7.75 µM in [7] (setting [19]); 7.56 µM in series [8] (setting [20]). Further, the IC50 in the series with U2OS (osteosarcoma) (setting [21]) amounted to 11.2 µM; in series [10] (setting [22]), 1.34 µM. Besides, the IC50 at 72 h is greater than 50 µM in [5]; 23.5 µM in series [6]; 30.7 µM in “Cytotoxic MTS assay, BJ”; greater than 50 µM in [9].
For the molecule `Cc1cc(C)cc(C(=O)OCC[S+]([O-])c2ccnc3cc(Cl)ccc23)c1` (stereo not drawn) [Compound 50, 2-[(7-Chloroquinolin-4-yl)sulfinyl]ethyl-3,5-dimethylbenzoate], the IC50 in series [1] (setting [15]) worked out at 15.2 µM; in [2] (setting [16]), 7.99 µM; in series [3] (setting [17]), 24 µM; in series [4] (setting [18]), 9.58 µM; in [7] (setting [19]) it was 10 µM; in series [8] (setting [20]) it was 7.1 µM. Further, the IC50 in the series with U2OS (osteosarcoma) (setting [21]) is 8.57 µM; in [10] (setting [22]) it was 1.32 µM. The IC50 at 72 h in [5] amounted to 22.3 µM; in series [6] it was 28.5 µM; in “Cytotoxic MTS assay, BJ”, 30.8 µM; in [9] it was 26.9 µM.
As to `O=C(OCCCS(=O)(=O)c1cc[n+]([O-])c2cc(Cl)ccc12)c1ccc(C(F)(F)F)cc1` [Compound 82, 3-[(N-Oxide 7-chloroquinolin-4-yl)sulfonyl]propyl-4-(trifluoromethyl)benzoate], the IC50 came to 6.24 µM in series [1]; 4.9 µM in series [2]; 6.66 µM in [3]; 4.01 µM in [4]; 19.8 µM in series [11]; 13.9 µM in [12]. The IC50 amounted to 3.46 µM in series [7]; 6.59 µM in series [8]; 5.05 µM with U2OS (osteosarcoma); 23.5 µM in [13]; 23.7 µM in series [14]; 1.05 µM in series [10].
